Target: T1, SIRT1 (Homo sapiens, UniProt Q96EB6)
T1 sequence (Q96EB6 1-747): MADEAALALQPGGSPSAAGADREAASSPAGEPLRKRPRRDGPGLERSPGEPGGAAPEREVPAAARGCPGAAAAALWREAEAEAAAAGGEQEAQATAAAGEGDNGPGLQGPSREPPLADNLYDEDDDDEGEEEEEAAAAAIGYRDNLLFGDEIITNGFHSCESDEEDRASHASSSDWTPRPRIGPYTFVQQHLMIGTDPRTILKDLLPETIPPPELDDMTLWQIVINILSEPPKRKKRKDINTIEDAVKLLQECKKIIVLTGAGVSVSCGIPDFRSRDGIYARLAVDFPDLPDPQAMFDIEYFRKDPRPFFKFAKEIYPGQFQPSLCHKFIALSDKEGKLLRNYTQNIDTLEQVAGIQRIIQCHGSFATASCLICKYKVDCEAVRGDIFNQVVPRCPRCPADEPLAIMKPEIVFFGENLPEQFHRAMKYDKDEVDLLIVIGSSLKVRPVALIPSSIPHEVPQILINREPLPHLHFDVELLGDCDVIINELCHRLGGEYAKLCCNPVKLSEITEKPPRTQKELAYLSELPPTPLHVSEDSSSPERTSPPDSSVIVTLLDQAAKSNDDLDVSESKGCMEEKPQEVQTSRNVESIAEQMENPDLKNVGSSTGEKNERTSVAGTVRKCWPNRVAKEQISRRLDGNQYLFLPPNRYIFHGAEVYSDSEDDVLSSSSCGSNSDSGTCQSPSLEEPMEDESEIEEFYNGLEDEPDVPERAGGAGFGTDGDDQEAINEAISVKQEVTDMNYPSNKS
Assay: Trp mass spectrometry assay of SIRT1 activation
Assay type: biochemical
Details: Trp peptide Ac-R-H-K-K(Ac)-W-NH2 0.5 μM, 120 μM βNAD+, 10 nM SIRT1, 25 min, 25° C.

Structure (SMILES)	TRP Activity (EC1.5, concentration of compound required to increase SIRT1 activity by 50% over control)	TRP MAX RESP (percent maximum fold activation relative to control)
Cc1ccc(-c2nc(C)c3c(n2)N(C(=O)Nc2cccnc2)[C@H]2CCN3C2)cn1 [Example 7, (8S)-4-methyl-2-(6-methylpyridin-3-yl)-N-(pyridin-3-yl)-7,8-dihydro-5,8-methanopyrimido[4,5-b][1,4]diazepine-9(6H)-carboxamide]	B (EC1.5 1-25 μM)	A (Fold activation ≥150%)
Cc1nc(C(=O)N[C@H](C)C(F)(F)F)nc2c1N1CC[C@@H](C1)N2C(=O)Nc1cc(OC[C@H](O)CO)ccn1 [Example 1, (8S)—N9-(4-((R)-2,3-dihydroxypropoxy)pyridin-2-yl)-4-methyl-N2-((R)-1,1,1-trifluoropropan-2-yl)-7,8-dihydro-5,8-methanopyrimido[4,5-b][1,4]diazepine-2,9(6H)-dicarboxamide]	A (EC1.5<1 μM)	A (Fold activation ≥150%)
O=C(Nc1nccc(OC[C@@H](O)CO)n1)N1c2nc(-c3cccc(C(F)(F)F)c3)ncc2N2CC[C@H]1C2 [Example 51, (8S)—N-(4-((S)-2,3-dihydroxypropoxy)pyrimidin-2-yl)-2-(3-(trifluoromethyl)phenyl)-7,8-dihydro-5,8-methanopyrimido[4,5-b][1,4]diazepine-9(6H)-carboxamide]	B (EC1.5 1-25 μM)	A (Fold activation ≥150%)

Results, then the compound that gave them:

TRP Activity (EC1.5, concentration of compound required to increase SIRT1 activity by 50% over control)	TRP MAX RESP (percent maximum fold activation relative to control)	Structure (SMILES)
C (EC1.5>25 μM)	A (Fold activation ≥150%)	O=C(NC1CC1)c1ncc2c(n1)N(C(=O)Nc1ccccn1)[C@H]1CCCN2C1 [Example 116, (9S)—N2-cyclopropyl-N10-(pyridin-2-yl)-8,9-dihydro-6H-5,9-methanopyrimido[4,5-b][1,4]diazocine-2,10(7H)-dicarboxamide]
B (EC1.5 1-25 μM)	A (Fold activation ≥150%)	Cc1nc(-c2cccc(C(F)(F)F)c2)nc2c1N1CC[C@@H](C1)N2C(=O)Nc1nccc(OC[C@H](O)CO)n1 [Example 56, (8S)—N-(4-((R)-2,3-dihydroxypropoxy)pyrimidin-2-yl)-4-methyl-2-(3-(trifluoromethyl)phenyl)-7,8-dihydro-5,8-methanopyrimido[4,5-b][1,4]diazepine-9(6H)-carboxamide]
A (EC1.5<1 μM)	A (Fold activation ≥150%)	Cc1ccc2c(NC(=O)N3c4nc(C(=O)N[C@H](C)C(F)(F)F)ncc4N4CCC[C@H]3C4)n[nH]c2n1 [Example 72, (9S)—N10-(6-methyl-1H-pyrazolo[3,4-b]pyridin-3-yl)-N2-((R)-1,1,1-trifluoropropan-2-yl)-8,9-dihydro-6H-5,9-methanopyrimido[4,5-b][1,4]diazocine-2,10(7H)-dicarboxamide]
A (EC1.5<1 μM)	A (Fold activation ≥150%)	O=C(Nc1cc(OC[C@@H](O)CO)ccn1)N1c2nc(-c3cccc(C(F)(F)F)c3)ncc2N2CCC[C@H]1C2 [Example 91, (9S)—N-(4-((S)-2,3-dihydroxypropoxy)pyridin-2-yl)-2-(3-(trifluoromethyl)phenyl)-8,9-dihydro-6H-5,9-methanopyrimido[4,5-b][1,4]diazocine-10(7H)-carboxamide]
A (EC1.5<1 μM)	A (Fold activation ≥150%)	O=C(Nc1cncc(OC[C@H](O)CO)c1)N1c2nc(-c3cccc(C(F)(F)F)c3)ncc2N2CCC[C@H]1C2 [Example 81, (9S)—N-(5-((R)-2,3-dihydroxypropoxy)pyridin-3-yl)-2-(3-(trifluoromethyl)phenyl)-8,9-dihydro-6H-5,9-methanopyrimido[4,5-b][1,4]diazocine-10(7H)-carboxamide]

Source: US20180319810A1, “SUBSTITUTED BRIDGED UREA ANALOGS AS SIRTUIN MODULATORS” (GlaxoSmithKline Intellectual Property (No.2) Limited, priority 2014, published 2018)
